Results reported in patent US9693992B2 (MannKind Corporation, priority 2010, dated 2017).
One block for each molecule: values may come before it.

What was measured:
[1] = target: IRE-1α (Homo sapiens (Human), UniProt O75460); assay: Cellular EC50: endogenous XBP-1 splicing in myeloma cells (MM.1s, DTT stress, RT-PCR); type: cell-based; conditions: average cellular EC50, XBP-1 splicing in myeloma cells
[2] = test system: XBP-1 splicing; assay: Inhibition of endogenous XBP-1 splicing in RPMI 8226 cells with thapsigargin (RT-PCR); type: cell-based, human; conditions: 300 nM, 2 hours
Procedure: PCR amplification products were run on a 4% agarose gel and stained with ethidium bromide. The inverse image is shown.
RPMI 8226 cells were grown in monolayer culture using Dulbecco's Modified Eagle Medium (DMEM) supplemented with 10% fetal calf serum (FCS) at 37° C. and 5% CO2. Compounds were kept as 10 mM stock in DMSO at −20° C. and diluted in medium to 10 μM. Thapsigargin (Tg) was resuspended in DMSO and diluted in medium.
Procedures for measuring XBP-1s and XBP-1u mRNAs have been described previously (Volkmann et al., J. Biol. Chem. 286, 12743-55, 2011). Briefly, total RNA was harvested from cells or tissue using TRIZOL® (Invitrogen) according to the manufacture's procedures. After ethanol precipitation and resuspension of the RNA, RIBOGREEN® (Invitrogen) was used to quantify the yield- and normalize the RNA concentration in the source tube containing isolated RNA. RT-PCR was performed by oligo dT priming, […]® II (Invitrogen) and reverse transcription using the […] GOLD® Kit (Applied Biosystems) according to the manufacturer's protocols. Primers for human XBP-1 were
All DNA oligos were purchased from IDT DNA Technologies. PCR reactions were run on a Bio-Rad PTC-100® 96-well thermocycler; heating at 94° C. for 30 seconds, annealing at 58° C. for 30 seconds polymerizing at 72° C. for 30 seconds for 35 cycles.

[3] = test system: human myeloma RPMI8226 tumor xenografts; assay: RPMI8226 xenograft efficacy model; type: in vivo, SCID mice; conditions: after cessation of therapy
Procedure: SCID mice are evaluated for their ability to support implantation of desired tumor cells in support of model development and characterization. Mice are injected intravenously […] or implanted either subcutaneously (SC) or intraperitoneally (IP). To generate a relevant animal model mimicking human disease, it is desirable that all three approaches are evaluated for improved implantation rates and relevant disease progression, as is well known in the art. SC injections provide an easy way to measure tumor growth and efficacy, and IV and IP injections represent a more physiologically relevant model of human tumor spread. SC injections are given primarily in the flank, while IV injections are administered in the tail vein. Mice are manually restrained for SC and IP injections, and a Broome mouse restrainer is used for IV injections.
SCID mice are implanted with tumor cells (human RPMI8226 myeloma cells) via IP, IV or SC routes based on the results from the xenograft model development studies (above). Mice are treated with compound or mock treated (vehicle) for a period of up to 4-5 weeks. Compound administration can be via IV, IP, PO or SC routes. […]
Mice are monitored for tumor growth, regression and general health. […] Tumor growth is measured by calipers, ultrasound, or by abdominal lavage. Biomarkers in the blood or tumor can evaluated (primarily XBP-1 splicing). […]

[4] = test system: XBP-1 splicing; assay: XBP-1 splicing inhibition in livers and kidneys of CB17 SCID mice after tunicamycin; type: in vivo; conditions: 1 mg/kg IP, alone, relative to PBS treated mice
Source text: The preclinical validation strategy employs a set of animal models representing normal tissues under chemical stress and multiple myeloma xenographs. The normal animal model is employed as a surrogate model where dose-related on-target activity of compounds can be confirmed in tissues sensitive to standard UPR inducing agents such as tunicamycin (Wu et al., Dev Cell. 2007 September; 13(1d):351-64). […] Upon induction with tunicamycin, tissues induce active XBP-1 mRNA splicing, and this activity is suppressed by IRE-1α inhibitors. This on-target ER stress animal model is a useful screening and early pharmacokinetic tool.
CB17 SCID mice were treated with 1 mg/kg tunicamycin by intraperitoneal (IP) injection at time 0 (T=0). Two hours later, compound A formulated in 10% hydroxy beta propyl cyclo dextran HBPCD was administered by IP injection. Doses were 50 mg/kg, 25 mg/kg and 10 mg/kg (4 mice in each group). Mice were sacrificed two hours later (4 hours from T=0), and the designated organs were harvested (FIG. 3A).
RT-PCR analysis was performed using murine-specific XBP-1 primers from total RNA harvested from specified organs. […] Each lane represents an individual mouse where RNA was harvested and RT-PCR was performed. Method of RNA extraction and RT-PCR analysis is described in Volkmann et al., J. Biol. Chem. 286, 12743-55, 2011. […]

Sequence of IRE-1α (O75460 19-977): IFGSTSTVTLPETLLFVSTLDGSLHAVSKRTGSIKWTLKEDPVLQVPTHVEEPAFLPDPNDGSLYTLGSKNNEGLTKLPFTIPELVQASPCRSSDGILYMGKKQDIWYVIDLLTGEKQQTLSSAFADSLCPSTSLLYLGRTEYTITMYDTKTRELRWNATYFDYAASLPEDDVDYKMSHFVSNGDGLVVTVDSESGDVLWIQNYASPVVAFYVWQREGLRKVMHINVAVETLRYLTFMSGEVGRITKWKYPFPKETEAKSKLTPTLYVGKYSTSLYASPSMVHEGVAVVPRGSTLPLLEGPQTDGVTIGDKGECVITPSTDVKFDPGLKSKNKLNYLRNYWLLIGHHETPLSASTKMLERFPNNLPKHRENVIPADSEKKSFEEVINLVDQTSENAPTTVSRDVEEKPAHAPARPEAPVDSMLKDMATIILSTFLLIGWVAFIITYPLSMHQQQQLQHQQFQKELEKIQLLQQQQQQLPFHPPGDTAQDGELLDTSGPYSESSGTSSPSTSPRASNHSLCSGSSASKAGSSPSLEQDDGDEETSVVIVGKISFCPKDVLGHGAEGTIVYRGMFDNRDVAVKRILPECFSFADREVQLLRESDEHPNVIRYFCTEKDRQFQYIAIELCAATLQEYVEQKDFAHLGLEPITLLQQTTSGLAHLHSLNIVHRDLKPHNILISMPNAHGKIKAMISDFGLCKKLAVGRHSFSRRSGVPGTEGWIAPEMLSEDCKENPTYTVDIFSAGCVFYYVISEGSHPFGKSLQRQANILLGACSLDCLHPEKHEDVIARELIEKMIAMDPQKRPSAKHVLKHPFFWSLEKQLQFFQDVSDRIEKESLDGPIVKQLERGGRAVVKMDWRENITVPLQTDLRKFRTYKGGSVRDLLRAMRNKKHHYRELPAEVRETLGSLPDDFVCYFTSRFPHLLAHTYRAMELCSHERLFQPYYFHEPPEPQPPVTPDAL

EC50 [1]: < 10 µM
Molecule: CCNC(=O)c1cc2c(C=O)c(O)ccc2o1 [Example 285]

EC50 [1]: < 10 µM
Molecule: O=Cc1c(O)ccc2oc(C(=O)NCCN3CCOCC3)cc12 [Example 286]

Molecule: C/C=C(/C)C(=O)O[C@H]1C(C)=C2[C@H]([C@@H]1OC(=O)CCCCCCC)[C@@](C)(OC(C)=O)C[C@H](OC(=O)CCC)[C@@]1(O)[C@H]2OC(=O)[C@@]1(C)O [Thapsigargin]
conversion of XBP-1u to XBP-1s [2]: near complete conversion of XBP-1u to XBP-1s

Molecule: CC(C)C[C@H](NC(=O)[C@H](Cc1ccccc1)NC(=O)c1cnccn1)B(O)O [bortezomib, [(1R)-3-methyl-1-[[(2S)-1-oxo-3-phenyl-2-[(pyrazinylcarbonyl)amino]propyl]amino]butyl]boronic acid]
tumor recurrence [3]: tumors often recurred and grew into large masses

Molecule: tunicamycin
induction of XBP-1s [4]: induces XBP-1 spliced
